# Reference: patent publication US20260184675A1, “CHIRAL ISOMERIC SULFITE COMPOUND AND APPLICATION THEREOF” (Chengdu Hanova BioSciences Co., Ltd, priority 2024, published 2026)
# Key:
# eggs of Thrips = test: Effect on hatching of eggs of Thrips, leaf disc method; type: in vivo; conditions: 100 ppm; for Hatching rate (%): 5 days after insecticide delivery
# Protocol: (§1) • (1) Preparation of leaf discs containing eggs: 20 female adult mites of Tetranychus cinnabarinus were transferred onto leaf discs of Vicia faba with a diameter of 2.0 cm (with wetted filter paper at the bottom), then covered it with a lidded culture dish and cultivated under moisturizing conditions, the adult mites were removed within 36 hours and microscopic examination and counting were performed on leaf discs containing eggs. • (2) Investigation of egg population base: Before pesticide soaking, a microscopic examination was conducted on the egg basic number of each leaf disc, with 2 replicates set for each treatment. • (3) Pesticide soaking treatment: The leaf butterflies loaded with mite eggs were soaked in clear water and sulfite compounds for 10 seconds, respectively, then taken out and cultivated under moisturizing conditions. Each treatment should be repeated for no less than 3 times. • (4) Cultivation and observation: The […] were cultivated under normal conditions. Five days after insecticide delivery, the hatching status of mite eggs was investigated. • Note: The temperature and humidity conditions of the constant temperature and humidity incubator after the treatment should be controlled so as to avoid excessive temperature differences, which may cause generation and dripping of condensate water in the culture dish, resulting in abnormal death of eggs due to soaking in water; it is also necessary to ensure sufficient strong ambient light, without directing irradiating the leaves. • (5) Survey of Results: The experimental materials of each treatment group were regularly hydrated and moisturized, and the hatching of eggs was observed. On the 7th day after insecticide delivery, the number of hatched eggs for each treatment was recorded, and the survey of results was recorded in the original notebook. According to the experimental requirements and characteristics of agents, the survey time can be shortened or extended.
# (§2) • 1) Surveying and recording the number of hatched eggs for each treatment. • 2) Photographing and recording whether there was any pesticide damage to the leaf discs of Vicia faba. • 3) Recording the developmental status of experimental mite eggs, behavior status of nymph mites, including abnormal phenomena such as delayed or stopped development of mite eggs, difficulty in breaking hull for nymph mites, or painful struggles after hatching, etc. • (6) Calculation method: Based on the survey data, the prevention and control effect of each treatment was calculated according to the following formula, and the calculation results were kept to two decimal places.
# This test adopted the method in Test Example 1 of technical section, mainly used leaf disc method to explore the inhibitory effect on hatching of eggs of Thrips by 1-(S,S), 1-(S,R), 1-(R,R), 1-(R,S), 1′-(S,S), 1′-(S,R), 1′-(R,R), 1′-(R,S), compound 1, compound 1′, S-10, R-10, S-10′, R-10′, compound 10, compound 10′, compound 19-(S,S), 19-(S,R), 19-(R,R), 19-(R,S), 19′-(S,S), 19′-(S,R), 19′-(R,R), 19′-(R,S), compound 19, and compound 19′. The concentration of all compounds was 100 ppm.
# eggs of Panonychus citri = test: Effect on hatching of eggs of Panonychus citri, leaf disc method; type: in vivo; conditions: 1 ppm; for Hatching rate (%), Replicate 1 / Hatching rate (%), Replicate 2 / Hatching rate (%), Replicate 3 / Number of hatched larvae 5 days after insecticide delivery, Replicate 1 / Number of hatched larvae 5 days after insecticide delivery, Replicate 2 / Number of hatched larvae 5 days after insecticide delivery, Replicate 3: Panonychus citri eggs; for Hatching rate (%), Replicate 1 / Hatching rate (%), Replicate 2 / Hatching rate (%), Replicate 3: 5 days after delivery; for Number of hatched larvae 5 days after insecticide delivery, Replicate 1 / Number of hatched larvae 5 days after insecticide delivery, Replicate 2 / Number of hatched larvae 5 days after insecticide delivery, Replicate 3: leaf disc
# Protocol: as §1, §2
# This test adopted the method in Test Example 1 of technical section, mainly used leaf disc method to explore the effect on hatching of eggs of Panonychus citri by compounds 1-(S,S), 1-(S,R), 1-(R,R), 1-(R,S), 1′-(S,S), 1′-(S,R), 1′-(R,R), 1′-(R,S), compound 1, compound 1′, S-10, R-10, S-10′, R-10′, compound 10, compound 10′, compound 19-(S,S), 19-(S,R), 19-(R,R), 19-(R,S), 19′-(S,S), 19′-(S,R), 19′-(R,R), 19′-(R,S), compound 19, and compound 19′. The concentration of all compounds was 1 ppm.
# Magnaporthe grisea = type: cell-based; conditions: 100 ppm; for Average antifungal rate (%) / Antifungal rate of Magnaporthe grisea (%), Replicate 1 / Antifungal rate of Magnaporthe grisea (%), Replicate 2 / Antifungal rate of Magnaporthe grisea (%), Replicate 3: 96-well plate; for Average antifungal rate (%): average of 3 replicates
# [1] = test system: eggs of Harmonia axyridis; test: Effect on hatching of eggs of Harmonia axyridis, egg card immersion; type: in vivo; conditions: 100 ppm; for Number of hatched larvae 4 days after insecticide delivery, Replicate 1 / Number of hatched larvae 4 days after insecticide delivery, Replicate 2 / Number of hatched larvae 4 days after insecticide delivery, Replicate 3: Harmonia axyridis egg cards, immersed 30 seconds; for Hatching rate (%), Replicate 1 / Hatching rate (%), Replicate 2 / Hatching rate (%), Replicate 3: Harmonia axyridis eggs, 4 days after delivery
# Source text: The eggs of Harmonia axyridis cards (with approximately 20 eggs per card) were purchased from Henan Jiyuan Baiyun Industry Co., Ltd. in Henan Province. The number of eggs on the egg cards was counted as the basic number before insecticide delivery, and 5 cards were used as one treatment, with 3 replicates per treatment. After immersing the egg cards in a 100 ppm insecticide solution for 30 seconds, they were taken out and air dried, then cultivated under moisturizing conditions, and the […] were cultivated at 27° C. 4 days after insecticide delivery, the hatching status of eggs of Harmonia axyridis was investigated, and the prevention and control effect was calculated according to the following formula. [formula] [formula]
# [2] = Replicate 1, listed as 1-(R, R)
# [3] = Replicate 2, listed as 1-(R, R)
# [4] = Replicate 3, listed as 1-(R, R)
# [5] = Replicate 1, listed as 1-(R, S)
# [6] = Replicate 2, listed as 1-(R, S)
# [7] = Replicate 3, listed as 1-(R, S)
compound,measurement,setting,value
"C[C@H](COS(=O)OCCF)Oc1ccc(Cl)cc1Cl (stereo partly drawn) [1-(R,R)]",inhibitory activity on the hatching of eggs of Thrips (in words),eggs of Thrips,strong inhibitory activities
same,Hatching rate (%),eggs of Thrips; [2],0.00%
same,Hatching rate (%),eggs of Thrips; [3],0.00%
same,Hatching rate (%),eggs of Thrips; [4],0.00%
same,Number of hatched larvae 5 days after insecticide delivery,eggs of Thrips; [2],0
same,Number of hatched larvae 5 days after insecticide delivery,eggs of Thrips; [3],0
same,Number of hatched larvae 5 days after insecticide delivery,eggs of Thrips; [4],0
same,inhibitory effect on the hatching of eggs of Panonychus citri (in words),eggs of Panonychus citri,good inhibitory effects
same,"Hatching rate (%), Replicate 1","eggs of Panonychus citri; listed as 1-(R, R)",0.00%
same,"Hatching rate (%), Replicate 2","eggs of Panonychus citri; listed as 1-(R, R)",0.00%
same,"Hatching rate (%), Replicate 3","eggs of Panonychus citri; listed as 1-(R, R)",0.00%
same,"Number of hatched larvae 5 days after insecticide delivery, Replicate 1","eggs of Panonychus citri; listed as 1-(R, R)",0
same,"Number of hatched larvae 5 days after insecticide delivery, Replicate 2","eggs of Panonychus citri; listed as 1-(R, R)",0
same,"Number of hatched larvae 5 days after insecticide delivery, Replicate 3","eggs of Panonychus citri; listed as 1-(R, R)",0
same,inhibitory rate against Magnaporthe grisea (in words),Magnaporthe grisea,strong inhibitory rate
same,Average antifungal rate (%),Magnaporthe grisea,98.96%
same,"Antifungal rate of Magnaporthe grisea (%), Replicate 1",Magnaporthe grisea,99.41%
same,"Antifungal rate of Magnaporthe grisea (%), Replicate 2",Magnaporthe grisea,99.12%
same,"Antifungal rate of Magnaporthe grisea (%), Replicate 3",Magnaporthe grisea,98.34%
same,inhibitory activity on the hatching of eggs of Harmonia axyridis (in words),[1],strong inhibitory activities
same,"Number of hatched larvae 4 days after insecticide delivery, Replicate 1","[1]; listed as 1-(R, R)",0
same,"Number of hatched larvae 4 days after insecticide delivery, Replicate 2","[1]; listed as 1-(R, R)",0
same,"Number of hatched larvae 4 days after insecticide delivery, Replicate 3","[1]; listed as 1-(R, R)",0
same,"Hatching rate (%), Replicate 1","[1]; listed as 1-(R, R)",0.00%
same,"Hatching rate (%), Replicate 2","[1]; listed as 1-(R, R)",0.00%
same,"Hatching rate (%), Replicate 3","[1]; listed as 1-(R, R)",0.00%
"C[C@H](COS(=O)OCCF)Oc1ccc(Cl)cc1Cl (stereo partly drawn) [1-(R,S)]",Hatching rate (%),eggs of Thrips; [5],9.57%
same,Hatching rate (%),eggs of Thrips; [6],9.02%
same,Hatching rate (%),eggs of Thrips; [7],7.95%
same,Number of hatched larvae 5 days after insecticide delivery,eggs of Thrips; [5],9
same,Number of hatched larvae 5 days after insecticide delivery,eggs of Thrips; [6],12
same,Number of hatched larvae 5 days after insecticide delivery,eggs of Thrips; [7],7
same,"Hatching rate (%), Replicate 1","eggs of Panonychus citri; listed as 1-(R, S)",7.14%
same,"Hatching rate (%), Replicate 2","eggs of Panonychus citri; listed as 1-(R, S)",8.39%
same,"Hatching rate (%), Replicate 3","eggs of Panonychus citri; listed as 1-(R, S)",8.14%
same,"Number of hatched larvae 5 days after insecticide delivery, Replicate 1","eggs of Panonychus citri; listed as 1-(R, S)",7
same,"Number of hatched larvae 5 days after insecticide delivery, Replicate 2","eggs of Panonychus citri; listed as 1-(R, S)",12
same,"Number of hatched larvae 5 days after insecticide delivery, Replicate 3","eggs of Panonychus citri; listed as 1-(R, S)",7
same,inhibitory rate against Magnaporthe grisea (in words),Magnaporthe grisea,strong inhibitory rate
same,Average antifungal rate (%),Magnaporthe grisea,81.91%
same,"Antifungal rate of Magnaporthe grisea (%), Replicate 1",Magnaporthe grisea,75.86%
same,"Antifungal rate of Magnaporthe grisea (%), Replicate 2",Magnaporthe grisea,83.08%
same,"Antifungal rate of Magnaporthe grisea (%), Replicate 3",Magnaporthe grisea,86.80%
same,"Number of hatched larvae 4 days after insecticide delivery, Replicate 1","[1]; listed as 1-(R, S)",11
same,"Number of hatched larvae 4 days after insecticide delivery, Replicate 2","[1]; listed as 1-(R, S)",9
same,"Number of hatched larvae 4 days after insecticide delivery, Replicate 3","[1]; listed as 1-(R, S)",10
same,"Hatching rate (%), Replicate 1","[1]; listed as 1-(R, S)",9.91%
same,"Hatching rate (%), Replicate 2","[1]; listed as 1-(R, S)",10.23%
same,"Hatching rate (%), Replicate 3","[1]; listed as 1-(R, S)",10.53%
